45 compounds from PubChem BioAssay AID1056 (Sanford-Burnham Center for Chemical Genomics, 2008) can be followed below.

The target in this test is Alkaline phosphatase, tissue-nonspecific isozyme (Homo sapiens) (UniProt P05186). The test is described as follows: human TNAP enzyme inhibitors, SAR follow-up, biochemical, luminescent, dose response (AID 1056). The note with it: purified human TNAP, luminescent substrate read-out.

For `O=C(NCCO)c1cc(-c2ccc(Cl)cc2Cl)n[nH]1`, the IC50 is 44.4 nM.

As to `COCCNC(=O)c1cc(-c2ccc(Cl)cc2Cl)n[nH]1`, the half-maximal inhibitory concentration (IC50) is 46.4 nM. The same measure for `O=C(NCCO)c1cc(-c2cc(F)c(Cl)cc2Cl)n[nH]1`: 100 nM; for `O=C(NCCO)c1cc(-c2cc(F)c(F)cc2F)n[nH]1`: 134 nM.

Consider `O=C(CNc1nc2ccccc2[nH]1)c1ccc(O)c(O)c1`, for which the IC50 is 93800 nM. As to `O=C1C2C3C=CC(C3)C2C(=O)N1c1n[nH]c(CCc2ccccc2)n1` (stereo not given), the IC50 is 30600 nM.

For `CCOc1ccc(Cl)cc1S(=O)(=O)Nc1cccnc1`, the IC50 is 537 nM. For `O=C1C2CCCCC2C(=O)N1c1n[nH]c(Cc2ccccc2)n1` (stereo not given), the IC50 is 1570 nM. In the case of `O=C(Cn1cnc(Br)c1)c1ccc(O)c(O)c1`, the IC50 was 47500 nM. Turning to `CC(C)CNC(=O)c1cc(-c2ccc(Cl)cc2Cl)n[nH]1`, the IC50 was 81.5 nM. For the compound `CN(C)C(=O)c1cc(-c2cc(F)c(Cl)cc2Cl)n[nH]1`, the IC50 was 324 nM. The same measure for `CC(C)CCNC(=O)c1cc(-c2ccc(Cl)cc2Cl)n[nH]1`: 459 nM. For `O=C(c1cc(-c2ccc(Cl)cc2Cl)n[nH]1)N1CCN(CCO)CC1`, the IC50 was 375 nM. Turning to `O=C(NCCO)c1cc(-c2ccc(F)cc2F)n[nH]1`, the IC50 was 35 nM.

Turning to `COc1ccc(C)cc1S(=O)(=O)Nc1cnc2ccccc2c1`, the IC50 was 649 nM. Under `O=C(NCCCO)c1cc(-c2cc(F)c(Cl)cc2Cl)n[nH]1` stands 55.8 nM. Under `COc1cc(S(=O)(=O)Nc2cccnc2)c(OC)cc1Cl` stands 1130 nM. The same measure for `COc1cc(S(=O)(=O)Nc2cccnc2)c(OC)cc1Br`: 1550 nM; for `O=C(c1cc(-c2ccc(Cl)cc2Cl)n[nH]1)N1CCOCC1`: 574 nM; for `CCOc1cc(C)c(Cl)cc1S(=O)(=O)Nc1cccnc1`: 691 nM. Take `COc1cc(S(=O)(=O)Nc2cccnc2)c(OC)cc1C`: the IC50 was 1490 nM. The same measure for `CCN(CC)C(=O)c1cc(-c2ccc(Cl)cc2Cl)n[nH]1`: 285 nM. The same measure for `CCN1CCN(C(=O)c2cc(-c3ccc(Cl)cc3Cl)n[nH]2)CC1`: 488 nM. The same measure for `O=C1C2CC=CCC2C(=O)N1c1n[nH]c(CCc2ccccc2)n1` (stereo not given): 27900 nM; for `CC(C)(C)NC(=O)c1cc(-c2ccc(Cl)cc2Cl)n[nH]1`: 398 nM; for `Cc1cn(CC(=O)c2ccc(O)c(O)c2)cn1`: 41100 nM. Consider `CN1CCN(C(=O)c2cc(-c3ccc(Cl)cc3Cl)n[nH]2)CC1`, for which the IC50 was 828 nM. Take `CC(C)NC(=O)c1cc(-c2cc(F)c(Cl)cc2Cl)n[nH]1`: the IC50 was 4850 nM. Under `COc1ccc2c(c1OC)C(=O)OC2CC(=O)c1ccc(O)c(O)c1` (stereo not given) stands 29200 nM; under `COc1ccc(F)cc1S(=O)(=O)Nc1cccnc1`, 1290 nM. On to `O=C1C2CC=CCC2C(=O)N1c1n[nH]c(-c2cccnc2)n1` (stereo not given), for which the IC50 was 10500 nM.

On to `O=C(c1cc(-c2ccc(Cl)cc2Cl)n[nH]1)N(CCO)CCO`, for which the IC50 was 46.8 nM. Under `O=C(c1cc(-c2cc(F)c(Cl)cc2Cl)n[nH]1)N(CCO)CCO` stands 127 nM; under `CC(C)NC(=O)c1cc(-c2ccc(Cl)cc2Cl)n[nH]1`, 51.1 nM; under `Cc1nc(Br)cn1CC(=O)c1ccc(O)c(O)c1`, 8740 nM. In the case of `O=C(c1cc(-c2ccc(Cl)cc2Cl)n[nH]1)N1CCCCCC1`, the IC50 is 1450 nM. Under `CN(C)C(=O)c1cc(-c2ccc(Cl)cc2Cl)n[nH]1` stands 119 nM; under `COc1cc(C)c(C)cc1S(=O)(=O)Nc1cccnc1`, 1680 nM; under `O=C(NCCCO)c1cc(-c2ccc(Cl)cc2Cl)n[nH]1`, 31.3 nM. Under `COc1cccc(S(=O)(=O)Nc2cnc3ccccc3c2)c1` stands 25800 nM; under `COc1cc(C)c(Cl)cc1S(=O)(=O)Nc1cccnc1`, 511 nM; under `COc1ccc(OC)c(S(=O)(=O)Nc2cccnc2)c1`, 1060 nM. Under `O=C(NCCCCO)c1cc(-c2ccc(Cl)cc2Cl)n[nH]1` stands 34.5 nM; under `O=C1C2CC=CCC2C(=O)N1c1n[nH]c(-c2ccco2)n1` (stereo not given), 4680 nM; under `O=C1c2ccccc2C(=O)N1c1n[nH]c(Cc2ccccc2)n1`, 670 nM.

The term IC50 denotes the point on the concentration scale where inhibition reaches its midpoint.
